The source made the active and inactive calls. The rule behind the calls is not given here.
Legend:
Tubulin = experiment: Inhibition of tubulin polymerization (unknown origin) measured upto 20 mins by spectrophotometer analysis; type: protein-complex assay, Homo sapiens
[1] = target: Programmed cell death 1 ligand 1 (Mus musculus, UniProt Q9EP73); experiment: Induction of PD-L1 degradation in mouse B16-F10 cells measured for 24 hrs by Western blot analysis; type: cell-based
[2] = target: Programmed cell death 1 ligand 1 (Mus musculus) (UniProt Q9EP73); experiment: Induction of PD-L1 degradation in mouse B16-F10 cells 0.5 to 10 uM measured for 4 hrs in presence of MG132 by Western blot analysis; type: cell-based; conditions: dose 0.5-10 µM
[3] = target: Programmed cell death 1 ligand 1 (Mus musculus) (UniProt Q9EP73); experiment: Induction of PD-L1 degradation in mouse B16-F10 cells assessed as upregulation of CTSB level at 1 to 4 uM measured for 4 hrs by Western blot analysis; type: cell-based; conditions: dose 1-4 µM
[4] = target: Programmed cell death 1 ligand 1 (Mus musculus) (UniProt Q9EP73); experiment: Induction of PD-L1 degradation in mouse B16-F10 cells assessed as upregulation of CTSB level at 1 to 4 uM measured for 4 hrs in presence of CA-074 by Western blot analysis; type: cell-based; conditions: dose 1-4 µM
[5] = AUC (0 to t) in Sprague-Dawley rat at 2 mg/kg, iv measured up to 12 hrs by LC-MS/MS analysis; type: ADME, organism-based; conditions: in vivo
[6] = AUC (0 to t) in Sprague-Dawley rat at 20 mg/kg, po measured up to 12 hrs by LC-MS/MS analysis; type: ADME, organism-based; conditions: in vivo
[7] = MRT (0 to t) in Sprague-Dawley rat at 2 mg/kg, iv measured up to 12 hrs by LC-MS/MS analysis; type: ADME, organism-based; conditions: in vivo
[8] = MRT (0 to t) in Sprague-Dawley rat at 20 mg/kg, po measured up to 12 hrs by LC-MS/MS analysis; type: ADME, organism-based; conditions: in vivo
[9] = MRT (0 to infinity) in Sprague-Dawley rat at 20 mg/kg, po measured up to 12 hrs by LC-MS/MS analysis; type: ADME, organism-based; conditions: in vivo
[10] = Half life in Sprague-Dawley rat at 2 mg/kg, iv measured up to 12 hrs by LC-MS/MS analysis; type: ADME, organism-based; conditions: in vivo
[11] = Half life in Sprague-Dawley rat at 20 mg/kg, po measured up to 12 hrs by LC-MS/MS analysis; type: ADME, organism-based; conditions: in vivo
[12] = Tmax in Sprague-Dawley rat at 20 mg/kg, po measured up to 12 hrs by LC-MS/MS analysis; type: ADME, organism-based; conditions: in vivo
[13] = Clearance in Sprague-Dawley rat at 2 mg/kg, iv measured up to 12 hrs by LC-MS/MS analysis; type: ADME, organism-based; conditions: in vivo
[14] = Clearance in Sprague-Dawley rat at 20 mg/kg, po measured up to 12 hrs by LC-MS/MS analysis; type: ADME, organism-based; conditions: in vivo
[15] = Apparent volume of distribution in Sprague-Dawley rat at 2 mg/kg, iv measured up to 12 hrs by LC-MS/MS analysis; type: ADME, organism-based; conditions: in vivo, read-out: Vz
[16] = Apparent volume of distribution in Sprague-Dawley rat at 20 mg/kg, po measured up to 12 hrs by LC-MS/MS analysis; type: ADME, organism-based; conditions: in vivo
[17] = Cmax in Sprague-Dawley rat at 2 mg/kg, iv measured up to 12 hrs by LC-MS/MS analysis; type: ADME, organism-based; conditions: in vivo
[18] = Oral bioavailability in Sprague-Dawley rat at 20 mg/kg measured up to 12 hrs by LC-MS/MS analysis; type: ADME, organism-based; conditions: in vivo
[19] = Metabolic stability in mouse liver microsome assessed as parent compound remaining measured immediately; type: ADME; conditions: liver microsomes, read-out: Stability
[20] = Metabolic stability in mouse liver microsome assessed as parent compound remaining measured at 15 mins; type: ADME; conditions: liver microsomes, read-out: Stability
[21] = Metabolic stability in mouse liver microsome assessed as parent compound remaining measured at 30 mins; type: ADME; conditions: liver microsomes, read-out: Stability
[22] = Metabolic stability in rat liver microsome assessed as parent compound remaining measured immediately; type: ADME; conditions: liver microsomes, read-out: Stability
[23] = Metabolic stability in rat liver microsome assessed as parent compound remaining measured at 5 mins; type: ADME; conditions: liver microsomes, read-out: Stability
[24] = Metabolic stability in rat liver microsome assessed as parent compound remaining measured at 15 mins; type: ADME; conditions: liver microsomes, read-out: Stability
[25] = Metabolic stability in rat liver microsome assessed as parent compound remaining measured at 30 mins; type: ADME; conditions: liver microsomes, read-out: Stability
[26] = Metabolic stability in rat liver microsome assessed as parent compound remaining measured at 45 mins; type: ADME; conditions: liver microsomes, read-out: Stability
[27] = Metabolic stability in mouse liver microsome assessed as half life; type: ADME; conditions: liver microsomes
[28] = Metabolic stability in rat liver microsome assessed as half life; type: ADME; conditions: liver microsomes
[29] = Metabolic stability in mouse liver microsome assessed as intrinsic clearance; type: ADME; conditions: liver microsomes, read-out: CLH
[30] = Metabolic stability in rat liver microsome assessed as intrinsic clearance; type: ADME; conditions: liver microsomes, read-out: CLH
B16-F10 [31] = experiment: Antitumor activity against mouse B16-F10 cells implanted in C57BL/6 mouse model assessed as reduction in tumor volume at 25 mg/kg, IG administered for 9 days; type: functional, organism-based; conditions: time 9.0 day
B16-F10 [32] = experiment: Antitumor activity against mouse B16-F10 cells implanted in C57BL/6 mouse model assessed as tumor growth inhibition at 25 mg/kg, IG administered for 9 days; type: functional; conditions: B16-F10, po, 216 h, time 9 day, read-out: TGI
[33] = Toxicity in C57BL/6 mouse implanted with mouse B16-F10 cells assessed as heart damage at 25 mg/kg, po administered for 9 days by H and E staining based analysis; type: organism-based; conditions: in vivo, 216 h, time 9 day
[34] = Toxicity in C57BL/6 mouse implanted with mouse B16-F10 cells assessed as liver damage at 25 mg/kg, po administered for 9 days by H and E staining based analysis; type: organism-based; conditions: in vivo, 216 h, time 9 day
[35] = Toxicity in C57BL/6 mouse implanted with mouse B16-F10 cells assessed as spleen damage at 25 mg/kg, po administered for 9 days by H and E staining based analysis; type: organism-based; conditions: in vivo, 216 h, time 9 day
[36] = Toxicity in C57BL/6 mouse implanted with mouse B16-F10 cells assessed as lung damage at 25 mg/kg, po administered for 9 days by H and E staining based analysis; type: organism-based; conditions: in vivo, 216 h, time 9 day
[37] = Acute toxicity in C57BL/6J mouse assessed as survival rate at 500 mg/kg, po administered for 14 days; type: organism-based; conditions: in vivo, time 14 day
[38] = Acute toxicity in C57BL/6J mouse assessed as survival rate at 1000 mg/kg, po administered for 14 days; type: organism-based; conditions: in vivo, time 14 day
B16-F10 [39] = experiment: Antitumor activity against mouse B16-F10 cells implanted in C57BL/6 mouse model assessed as decrease in PD-L1 level at 25 mg/kg, po administered for 9 days by Western blot analysis; type: functional, organism-based; conditions: time 9.0 day
B16-F10 [40] = experiment: Antitumor activity against mouse B16-F10 cells implanted in C57BL/6 mouse model assessed as induction of PD-L1 degradation at 25 mg/kg, po administered for 9 days by Western blot analysis; type: functional, organism-based; conditions: time 9.0 day
B16-F10 [41] = experiment: Antitumor activity against mouse B16-F10 cells implanted in C57BL/6 mouse model assessed as upregulation of Ac-H3 expression at 25 mg/kg, po administered for 9 days by Western blot analysis; type: functional, organism-based; conditions: time 9.0 day
B16-F10 [42] = experiment: Antitumor activity against mouse B16-F10 cells implanted in C57BL/6 mouse model assessed as increase in Ac-H3 expression in tumor at 25 mg/kg, po administered for 9 days by Western blot analysis; type: functional, organism-based; conditions: time 9.0 day

Programmed cell death 1 ligand 1 (Mus musculus), sequence (Q9EP73 whole entry): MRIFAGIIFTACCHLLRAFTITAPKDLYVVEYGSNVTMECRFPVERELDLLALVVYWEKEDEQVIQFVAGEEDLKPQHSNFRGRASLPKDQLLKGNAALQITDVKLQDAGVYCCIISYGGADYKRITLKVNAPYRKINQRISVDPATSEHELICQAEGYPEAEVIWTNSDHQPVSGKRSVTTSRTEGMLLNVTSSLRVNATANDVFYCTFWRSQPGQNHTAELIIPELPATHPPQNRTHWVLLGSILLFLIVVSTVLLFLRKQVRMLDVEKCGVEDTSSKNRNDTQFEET
Programmed cell death 1 ligand 1, sequence (Q9EP73 whole entry): as above

In the case of CCCNNC(=O)c1ccc(CNC(=O)c2ncc(CNc3ccccc3)s2)cc1, the IC50 (Tubulin) is reported as 7.3 µM, the DC50 [1] is reported as 5.7 µM and the Activity [2] is reported as “Active”. The Activity [3] was “Active”, the Activity [4] was “Active” and the AUC(0-t) at 12 h [5] was 522 ng·h/mL. For the same molecule, the AUC(0-t) at 12 h [6] was 2740 ng·h/mL, the MRT last at 12 h [7] was 31.2 min and the MRT last at 12 h [8] was 191 min. The MRT inf [9] was 269 min, the half-life [10] was 24 min and the half-life [11] was 216 min. The Tmax [12] was 30 min, the clearance [13] was 64.5 mL/min/kg and the CL/F [14] was 121 mL/min/kg. For the same molecule, the Vd [15] was 2.21 L/kg, the Vz [16] was 34.45 L/kg and the Cmax [17] was 725 ng/mL. For the same molecule, the bioavailability [18] was 57%, the remaining at 0 min [19] was 100% and the remaining at 0.25 h [20] was 31.6%. It also gave a remaining at 0.5 h [21] of 11.3%, a remaining at 0 min [22] of 100% and a remaining at 5 min [23] of 79.9%. It also gave a remaining at 0.25 h [24] of 57.5%, a remaining at 0.5 h [25] of 38.5% and a remaining at 0.75 h [26] of 25.4%. For the same molecule, the half-life [27] was 9.69 min, the half-life [28] was 23.7 min and the CLint scaled [29] was 563 mL/min/kg. The CLint scaled [30] was 107 mL/min/kg, the Activity (B16-F10 [31]) was “Active” and the inhibition in vivo at 25 mg/kg (B16-F10 [32]) was 37%. The Activity [33] was “Non-Toxic”, the Activity [34] was “Non-Toxic” and the Activity [35] was “Non-Toxic”. For the same molecule, the Activity [36] was “Non-Toxic”, the survival at 336 h [37] was 100% and the survival at 336 h [38] was 80%. For the same molecule, the Activity (B16-F10 [39]) was “Active”, the Activity (B16-F10 [40]) was “Active” and the Activity (B16-F10 [41]) was “Active”. The Activity (B16-F10 [42]) was “Active”.
